Test results: US7173035B2, “Arylsulfonamide compounds” (Biovitrum AB, priority 2001, dated 2007)
Counter-ions that a name gives are not always drawn. Values belong to the compound of their own block, whether it stands above or below them.

Columns and labels:
[1] = test system: Obese (ob/ob) mouse; assay: In vivo assay of reduction of food intake

melting point: 84 to 85 °C
Structure (SMILES): CN1CCCN(c2ccc(S(=O)(=O)Nc3ccccc3)cc2N)CC1 (as salt: hydrochloride) [Example 92, 3-Amino-4-(4-methyl-1,4-diazepan-1-yl)-N-phenylbenzenesulfonamide]

Structure (SMILES): Cl.O=S(=O)(Nc1ccc(N2CCCNCC2)cc1NS(=O)(=O)c1ccccc1)c1ccccc1 [Example 27, N-{4-(homopiperazinyl)-2-[(phenylsulfonyl)amino]phenyl}benzenesulfonamide hydrochloride]
Reduction of Food Intake (%) po administration ([1]; Dose 50 mg/Kg): 28%

Structure (SMILES): CCN(c1cc(N2CCCNCC2)ccc1NS(=O)(=O)c1ccccc1)S(=O)(=O)c1ccccc1.Cl [Example 29, N-{4-(1,4-diazepan-1-yl)-2-[ethyl(phenylsulfonyl)amino]phenyl}benzenesulfonamide hydrochloride]
Reduction of Food Intake (%) po administration ([1]; Dose 100 mg/Kg): 60%
